Measurements from ChEMBL document CHEMBL1201862, “PubChem BioAssay data set” (2004).
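Assay format: 96-well plates, 48-hour exposure. GI50 is the concentration that inhibits growth by half.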 Active and inactive are the calls of the source. Cut-off read from the data, not from the text of the source: active = GI50 up to about 1.1 µM and inactive = higher.

What was measured:
Assay in all cases: NCI tumour cell line growth inhibition, 48 h
DU-145 = test system: DU-145
HOP-92 = test system: HOP-92
HT-29 = test system: HT-29
IGROV-1 = test system: IGROV-1
KM12 = test system: KM12
MDA-MB-231 = test system: MDA-MB-231
Malme-3M = test system: Malme-3M
NCI-H522 = test system: NCI-H522
OVCAR-8 = test system: OVCAR-8
RXF 393 = test system: RXF 393
SF-268 = test system: SF-268
SF-295 = test system: SF-295
SK-MEL-5 = test system: SK-MEL-5
SK-OV-3 = test system: SK-OV-3
SN12C = test system: SN12C
T47D = test system: T47D
U-251 = test system: U-251
UACC-257 = test system: UACC-257
NCI-H460 = test system: NCI-H460
SF-539 = test system: SF-539

Measured: GI50

COc1ccc(C[N+]23C(CC[C@H]2c2ccccc2)CC[C@H]3c2ccccc2)cc1 (some centres not stated)
inactive: DU-145 23.8 µM | HOP-92 9.66 µM | HT-29 12.2 µM | IGROV-1 10.9 µM | KM12 10.4 µM | MDA-MB-231 28.2 µM | Malme-3M 11.4 µM | NCI-H522 8.73 µM | OVCAR-8 22.9 µM | RXF 393 13.8 µM | SF-268 30.3 µM | SF-295 26.1 µM | SK-MEL-5 4.43 µM | SK-OV-3 29.5 µM | SN12C 36.9 µM | T47D 4.56 µM | U-251 18.6 µM | UACC-257 5.22 µM

Nn1c(S)nnc1CCCCCCCCc1nnc(S)n1N
inactive: DU-145 > 100 µM | HOP-92 > 100 µM | HT-29 > 100 µM | IGROV-1 > 100 µM | KM12 > 100 µM | MDA-MB-231 > 100 µM | Malme-3M > 100 µM | NCI-H460 > 100 µM | NCI-H522 > 100 µM | OVCAR-8 > 100 µM | RXF 393 > 100 µM | SF-268 > 100 µM | SF-295 > 100 µM | SF-539 > 100 µM | SK-OV-3 > 100 µM | SN12C > 100 µM | T47D > 100 µM | U-251 > 100 µM | UACC-257 > 100 µM

CC(=O)Nc1ccc(C(=O)N[C@@H]2C(=O)N3[C@@H]2SC(C)(C)[C@@H]3C(=O)O)cn1
inactive: DU-145 > 100 µM | HOP-92 > 100 µM | HT-29 > 100 µM | IGROV-1 > 100 µM | KM12 > 100 µM | MDA-MB-231 > 100 µM | Malme-3M > 100 µM | NCI-H460 > 100 µM | OVCAR-8 > 100 µM | RXF 393 > 100 µM | SF-268 > 100 µM | SF-295 > 100 µM | SK-MEL-5 > 100 µM | SK-OV-3 > 100 µM | SN12C > 100 µM | T47D > 100 µM | U-251 > 100 µM | UACC-257 > 100 µM

COC(=O)CC[N+]1([O-])CC1
inactive: DU-145 > 100 µM | HOP-92 > 100 µM | HT-29 > 100 µM | IGROV-1 > 100 µM | KM12 > 100 µM | MDA-MB-231 > 100 µM | Malme-3M > 100 µM | NCI-H460 > 100 µM | OVCAR-8 > 100 µM | RXF 393 > 100 µM | SF-268 > 100 µM | SF-295 > 100 µM | SF-539 > 100 µM | SK-MEL-5 > 100 µM | SK-OV-3 > 100 µM | SN12C > 100 µM | T47D > 100 µM | U-251 > 100 µM | UACC-257 > 100 µM

Cc1cccc(Cl)c1NCC(O)CN1CCN(C)CC1 (configuration not stated)
inactive: DU-145 > 100 µM | HOP-92 > 100 µM | HT-29 > 100 µM | IGROV-1 > 100 µM | KM12 > 100 µM | MDA-MB-231 > 100 µM | Malme-3M > 100 µM | NCI-H460 > 100 µM | NCI-H522 > 100 µM | OVCAR-8 > 100 µM | RXF 393 > 100 µM | SF-268 > 100 µM | SF-295 > 100 µM | SK-MEL-5 > 100 µM | SN12C > 100 µM | T47D > 100 µM | U-251 > 100 µM | UACC-257 > 100 µM

CCOC(=O)N1CCC2(CC1)C[C@](Sc1ccccc1)(C(C)=O)[C@H](C)O2
inactive: DU-145 > 100 µM | HOP-92 > 100 µM | HT-29 > 100 µM | IGROV-1 > 100 µM | KM12 > 100 µM | MDA-MB-231 > 100 µM | Malme-3M > 100 µM | NCI-H460 > 100 µM | NCI-H522 > 100 µM | OVCAR-8 > 100 µM | RXF 393 > 100 µM | SF-268 > 100 µM | SF-295 > 100 µM | SF-539 > 100 µM | SK-MEL-5 > 100 µM | SK-OV-3 > 100 µM | T47D > 100 µM | U-251 > 100 µM | UACC-257 > 100 µM

Cc1cc(C)c(S(=O)(=O)N2CCCN(S(=O)(=O)c3c(C)cc(C)cc3C)OCCCO2)c(C)c1
inactive: DU-145 > 100 µM | HOP-92 47.1 µM | HT-29 > 100 µM | IGROV-1 > 100 µM | KM12 > 100 µM | MDA-MB-231 > 100 µM | Malme-3M > 100 µM | NCI-H460 > 100 µM | NCI-H522 > 100 µM | OVCAR-8 > 100 µM | RXF 393 > 100 µM | SF-268 > 100 µM | SF-295 > 100 µM | SK-MEL-5 > 100 µM | SK-OV-3 > 100 µM | SN12C > 100 µM | T47D 63.5 µM | U-251 > 100 µM | UACC-257 45.9 µM

O=C(O)Cc1cccc2c(=O)c3ccccc3oc12
inactive: DU-145 > 100 µM | HOP-92 > 100 µM | HT-29 > 100 µM | IGROV-1 > 100 µM | KM12 > 100 µM | MDA-MB-231 > 100 µM | Malme-3M > 100 µM | NCI-H460 > 100 µM | NCI-H522 48.5 µM | OVCAR-8 > 100 µM | SF-268 > 100 µM | SF-295 > 100 µM | SF-539 > 100 µM | SK-MEL-5 > 100 µM | SK-OV-3 17.7 µM | SN12C > 100 µM | T47D 19.1 µM | U-251 > 100 µM | UACC-257 > 100 µM

CC1=CC(=O)C(C(O)(C(F)(F)F)C(F)(F)F)C(C)(C)C1 (configuration not stated)
inactive: DU-145 > 10 µM | HT-29 > 10 µM | IGROV-1 > 10 µM | KM12 > 10 µM | MDA-MB-231 > 10 µM | Malme-3M > 10 µM | NCI-H460 > 10 µM | NCI-H522 > 10 µM | OVCAR-8 > 10 µM | RXF 393 > 10 µM | SF-268 > 10 µM | SF-295 > 10 µM | SF-539 > 10 µM | SK-MEL-5 > 10 µM | SK-OV-3 > 10 µM | SN12C > 10 µM | T47D > 10 µM | U-251 > 10 µM | UACC-257 > 10 µM

Cc1cn(C2CC(OP(=O)(O)OCC3OC(n4c[n+]([BH2-]C#N)c5c(=O)[nH]c(N)nc54)CC3O)C(CO)O2)c(=O)[nH]c1=O (configuration not stated)
inactive: DU-145 > 100 µM | HOP-92 > 100 µM | HT-29 > 100 µM | IGROV-1 > 100 µM | KM12 > 100 µM | MDA-MB-231 > 100 µM | Malme-3M > 100 µM | NCI-H460 > 100 µM | NCI-H522 > 100 µM | OVCAR-8 > 100 µM | RXF 393 > 100 µM | SF-268 > 100 µM | SF-295 > 100 µM | SF-539 > 100 µM | SK-MEL-5 > 100 µM | SN12C > 100 µM | T47D > 100 µM | U-251 > 100 µM | UACC-257 > 100 µM

CC(=O)/C=C/CCC(=O)/C=C/C(=O)OC(CCC(=O)/C=C/C(=O)O)CC(C)=O (configuration not stated)
inactive: DU-145 > 100 µM | HOP-92 > 100 µM | HT-29 > 100 µM | IGROV-1 > 100 µM | KM12 > 100 µM | MDA-MB-231 > 100 µM | Malme-3M > 100 µM | NCI-H460 > 100 µM | NCI-H522 96.4 µM | OVCAR-8 > 100 µM | RXF 393 > 100 µM | SF-268 > 100 µM | SF-295 > 100 µM | SF-539 > 100 µM | SK-MEL-5 > 100 µM | SN12C > 100 µM | T47D > 100 µM | U-251 > 100 µM | UACC-257 > 100 µM

N#C[C@](CO)(NC(=O)OCc1ccccc1)C(F)F
inactive: DU-145 > 100 µM | HOP-92 > 100 µM | HT-29 > 100 µM | IGROV-1 > 100 µM | KM12 > 100 µM | MDA-MB-231 > 100 µM | Malme-3M > 100 µM | NCI-H460 > 100 µM | NCI-H522 > 100 µM | OVCAR-8 > 100 µM | RXF 393 > 100 µM | SF-268 > 100 µM | SF-295 > 100 µM | SK-MEL-5 > 100 µM | SK-OV-3 > 100 µM | T47D > 100 µM | U-251 > 100 µM | UACC-257 > 100 µM

OCC(O)CNc1ncnc2ccccc12 (configuration not stated)
inactive: DU-145 > 100 µM | HOP-92 > 100 µM | HT-29 > 100 µM | IGROV-1 > 100 µM | KM12 > 100 µM | MDA-MB-231 > 100 µM | Malme-3M > 100 µM | NCI-H460 > 100 µM | NCI-H522 > 100 µM | OVCAR-8 > 100 µM | RXF 393 > 100 µM | SF-268 > 100 µM | SF-295 > 100 µM | SK-MEL-5 > 100 µM | SK-OV-3 > 100 µM | SN12C > 100 µM | T47D > 100 µM | U-251 > 100 µM | UACC-257 > 100 µM

CC(C)(C)OC(=O)Cn1ncn(NC(=O)Cc2ccccc2)c1=S
inactive: DU-145 > 10 µM | HOP-92 > 10 µM | HT-29 > 10 µM | IGROV-1 > 10 µM | KM12 > 10 µM | MDA-MB-231 > 10 µM | Malme-3M > 10 µM | NCI-H460 > 10 µM | NCI-H522 > 10 µM | OVCAR-8 > 10 µM | SF-268 > 10 µM | SF-295 > 10 µM | SF-539 > 10 µM | SK-MEL-5 > 10 µM | SK-OV-3 > 10 µM | SN12C > 10 µM | T47D > 10 µM | U-251 > 10 µM | UACC-257 > 10 µM
